Test results from patent US12083115B2, “Methods for treating neurological symptoms associated with lysosomal storage diseases” (Genzyme Corporation, priority 2020, dated 2024).

How the values were obtained:
[1] = biological target: glucosylceramide synthase (Homo sapiens (Human), UniProt Q16739); test: Glucosylceramide synthase activity microsomal assay; format: biochemical; settings: microsomes from A375 human melanoma cells; read-out: GCS IC50
Excerpt: (§1) Inhibition of glucosylceramide synthase activity can be measured with one or more assays. A first assay is a microsomal assay that directly measures the conversion of ceramide to glucosylceramide by HPLC. Microsomes are a source of glucosylceramide synthase activity in the microsomal assay. A second assay is a cell based, phenotypic assay that monitors cell surface expression of the downstream lipid GM3 by antibody mediated immunofluorescence. Specific protocols are provided below.
An enzyme assay using microsomes as a source of glucosylceramide synthase activity. Fluorescent ceramide substrate is delivered to membrane-bound enzyme as a complex with albumin. After reaction, ceramide and glucosylceramide are separated and quantitated by reverse-phase HPLC with fluorescence detection. Enzymatic activity is assessed using a fluorescent labeled substrate and microsomes as a source of glucosylceramide synthase. C6-NBD-Ceramide is complexed with albumin for delivery to microsomes that are isolated according to the procedure described below. The final concentration of C6-NBD-Ceramide in the stock solution is 0.5 mM; the final concentration of BSA is 0.5 mM. Separation and quantitation of substrate and product (glucosylceramide) are achieved by reverse-phase HPLC with fluorescence detection.
Microsomes are isolated from A375 human melanoma cells. Eight to ten million cells are harvested by trypsinization and washed with ice cold PBS. Cells are resuspended in ice-cold lysis buffer containing protease inhibitors. Cell lysate is sonicated on ice using a probe sonicator. After sonication, the cell lysate is separated from debris by centrifugation at 10,000 g for 10 minutes at 4° C. The supernatant is removed and cleared by additional centrifugation at 100,000 g for 1 hour at 4° C. The pellet is then resuspended in the lysis buffer, aliquoted, and stored at −80° C. prior to use.
The reaction is stopped by the addition of 150 μL of 100 μM C8-ceramide in 50% aq. isopropanol; 10 μL of the final mix is analyzed on HPLC (with fluorescence detector). […] Fluorescence is detected with λex=470 nm and λem=530 nm. […] Both peaks are separated from each other and the baseline and were integrated automatically by the HPLC software. The percent conversion of substrate to product is used as the readout for inhibitor testing. […]

[2] = system: GM3 expression in B16 mouse melanoma cells; test: GM3 fluorescent-linked immunosorbent assay (FLISA), B16; format: cell-based; settings: 48 hours
Excerpt: as §1
(§2) This is a phenotypic assay that measures GM3 expression in B16 mouse melanoma or C32 human melanoma cells following treatment with test compounds. Cell surface GM3 expression is determined by antibody mediated fluorescence.
(§3) Compounds are diluted in media and plated in 384 well plates in DMSO. B16 and C32 cells are assayed at densities of 20,000 cells/ml and 62,500 cells/ml, respectively, per well. Each titration curve contains 10 points that are assayed in duplicate on each test run. The plates are incubated for 48 hours at 37° C., 5% CO2, and are then washed once with TBS. Anti-GM3 antibody is added to each well and the plates are then incubated for an additional one hour at room temperature. Plates are subsequently washed twice and incubated for an additional hour with the labeled secondary antibody. Following the final incubation, the plates are washed twice and the fluorescence at λex=D640/20 nm and λem=657 nm is detected on a fluorescent reader.
(§4) The results of the microsomal assays are expressed as “GCS IC50,” which represents the concentration of the compound causing 50% inhibition of glucosylceramide synthase activity. The results of the cell-based assays are expressed as “GM3 B16 IC50” or “GM3 C32 IC50” for the B16 assay and the C32 assay, respectively. These values represent the concentration of the compound causing 50% inhibition of GM3 expression on the cell surface.

[3] = system: GM3 expression in C32 human melanoma cells; test: GM3 fluorescent-linked immunosorbent assay (FLISA), C32; format: cell-based; settings: 48 hours
Excerpt: as §1, §2, §3, §4

[4] = system: neurological manifestations of GD-3; settings: cited from earlier work

glucosylceramide synthase, sequence (Q16739 whole entry): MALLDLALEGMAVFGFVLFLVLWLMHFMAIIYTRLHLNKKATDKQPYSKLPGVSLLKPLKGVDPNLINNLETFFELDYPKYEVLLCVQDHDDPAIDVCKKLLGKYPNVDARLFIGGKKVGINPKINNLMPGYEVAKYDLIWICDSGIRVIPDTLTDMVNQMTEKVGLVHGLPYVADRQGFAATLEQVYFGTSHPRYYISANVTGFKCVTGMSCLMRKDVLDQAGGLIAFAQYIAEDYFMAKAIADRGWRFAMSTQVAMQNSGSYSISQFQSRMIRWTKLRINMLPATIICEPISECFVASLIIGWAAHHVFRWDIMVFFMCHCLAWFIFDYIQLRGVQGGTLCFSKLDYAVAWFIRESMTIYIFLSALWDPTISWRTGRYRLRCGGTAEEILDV

CC(C)(NC(=O)O[C@@H]1CN2CCC1CC2)c1nc(-c2ccc(F)cc2)cs1 [Compound 12, (S)-quinuclidin-3-yl 2-(4-(4-fluorophenyl)thiazol-2-yl)propan-2-ylcarbamate]
IC50 [1]: 20.3 µM | IC50 [2]: 87.8 µM | IC50 [3]: 3.7 µM

COc1ccc(-c2ccc(C3(NC(=O)OC4CN5CCC4CC5)CC3)cc2)cc1 (centres unmarked) [Compound 9, 1-azabicyclo[2.2.2]oct-3-yl [1-(4′-methoxybiphenyl-4-yl)cyclopropyl]carbamate]
IC50 [1]: 1.4 µM | IC50 [2]: 16.8 µM | IC50 [3]: 0.4 µM

COCCOc1ccc(-c2cccc(C(C)(C)NC(=O)OC3CN4CCC3CC4)c2)cc1 (centres unmarked) [Compound 15, Quinuclidin-3-yl (2-(4′-(2-methoxyethoxy)-[1,1′-biphenyl]-3-yl)propan-2-yl)carbamate]
IC50 [1]: 26.7 µM | IC50 [2]: 29.5 µM | IC50 [3]: 4.9 µM

COCCOc1ccc(-c2ccc(C(C)(C)NC(=O)O[C@@H]3CN4CCC3CC4)cc2)cc1 [Compound 3, (S)-quinuclidin-3-yl (2-(4′-(2-methoxyethoxy)-[1,1′-biphenyl]-4-yl)propan-2-yl)carbamate]
IC50 [1]: 4.14 µM | IC50 [2]: 43.7 µM | IC50 [3]: 1.31 µM

COCCCOc1ccc(-c2ccc(C(C)(C)NC(=O)OC3CN4CCC3CC4)cc2)cc1 (centres unmarked) [Compound 16, Quinuclidin-3-yl (2-(4′-(3-methoxypropoxy)-[1,1′-biphenyl]-4-yl)propan-2-yl)carbamate]
IC50 [1]: 2.4 µM | IC50 [2]: 66.6 µM | IC50 [3]: 1.6 µM

COCCOc1ccc(-c2ccc(C(C)(C)NC(=O)OC3CN4CCC3CC4)nc2)cc1 (centres unmarked) [Compound 21, Quinuclidin-3-yl 2-(5-(4-(2-methoxyethoxy)phenyl)pyridin-2-yl)propan-2-ylcarbamate]
IC50 [1]: 50.6 µM | IC50 [2]: 266 µM | IC50 [3]: 11.1 µM

CC(C)(NC(=O)OC1CN2CCC1CC2)c1csc(-c2ccc(F)cc2)c1 (centres unmarked) [Compound 10, Quinuclidin-3-yl 2-(5-(4-fluorophenyl)thiophen-3-yl)propan-2-ylcarbamate]
IC50 [1]: 6.4 µM | IC50 [2]: 21.3 µM | IC50 [3]: 2.2 µM

CC(C)(NC(=O)OC1CN2CCC1CC2)c1ccc(-c2ccc(OCCCC#N)cc2)cc1 (centres unmarked) [Compound 22, Quinuclidin-3-yl (2-(4′-(3-cyanopropoxy)-[1,1′-biphenyl]-4-yl)propan-2-yl)carbamate]
IC50 [1]: 9.6 µM | IC50 [2]: 86.5 µM | IC50 [3]: 3.2 µM

CC(C)(NC(=O)O[C@@H]1CN2CCC1CC2)c1cc(-c2ccc(F)cc2)ns1 [Compound 11, (S)-quinuclidin-3-yl 2-(3-(4-fluorophenyl)isothiazol-5-yl)propan-2-ylcarbamate]
IC50 [1]: 14.9 µM | IC50 [2]: 81.9 µM | IC50 [3]: 1.8 µM

COCCOc1cccc(-c2ccc(C(C)(C)NC(=O)O[C@@H]3CN4CCC3CC4)cc2)c1 [Compound 14, (S)-quinuclidin-3-yl (2-(3′-(2-methoxyethoxy)-[1,1′-biphenyl]-4-yl)propan-2-yl)carbamate]
IC50 [1]: 10.4 µM | IC50 [2]: 110 µM | IC50 [3]: 5.3 µM

CC(C)(NC(=O)OC1CN2CCC1CC2)c1cccc(-c2ccc(F)cc2)c1 (centres unmarked) [Compound 1, Quinuclidin-3-yl (2-(4′-fluoro-[1,1′-biphenyl]-3-yl)propan-2-yl)carbamate]
IC50 [1]: 1.9 µM | IC50 [2]: 15.6 µM | IC50 [3]: 2.1 µM

CC(C)(NC(=O)OC1CN2CCC1CC2)c1cccc(-c2ccccc2)c1 (centres unmarked) [Compound 4, 1-azabicyclo[2.2.2]oct-3-yl [2-(biphenyl-3-yl)propan-2-yl]carbamate]
IC50 [1]: 1.5 µM | IC50 [2]: 11.6 µM | IC50 [3]: 0.8 µM

O=C(NC1(c2ccc(-c3ccc(F)cc3)cc2)CC1)O[C@@H]1CN2CCC1CC2 [Compound 7, (S)-quinuclidin-3-yl 1-(4′-fluorobiphenyl-4-yl)cyclopropylcarbamate]
IC50 [1]: 1.4 µM | IC50 [2]: 8.1 µM | IC50 [3]: 0.4 µM

O=C(NC1(c2ccc(-c3ccccc3)cc2)CC1)OC1CN2CCC1CC2 (centres unmarked) [Compound 6, Quinuclidin-3-yl 1-(biphenyl-4-yl)cyclopropylcarbamate]
IC50 [1]: 2.8 µM | IC50 [2]: 18.1 µM | IC50 [3]: 0.6 µM

CC(C)(NC(=O)OC1CN2CCC1CC2)c1ccc(-c2ccc(OCC#N)cc2)cc1 (centres unmarked) [Compound 23, Quinuclidin-3-yl (2-(4′-(cyanomethoxy)-[1,1′-biphenyl]-4-yl)propan-2-yl)carbamate]
IC50 [1]: 2.6 µM | IC50 [2]: 47.7 µM | IC50 [3]: 0.8 µM

CC(C)(NC(=O)OC1CN2CCC1CC2)c1ccc(-c2ccc(CO)cc2)cc1 (centres unmarked) [Compound 17, Quinuclidin-3-yl (2-(4′-(hydroxymethyl)-[1,1′-biphenyl]-4-yl)propan-2-yl)carbamate]
IC50 [1]: 454 µM | IC50 [2]: 879 µM | IC50 [3]: 21.6 µM

COCCCOc1ccc(-c2nc(C(C)(C)NC(=O)OC3CN4CCC3CC4)cs2)cc1 (centres unmarked) [Compound 19, Quinuclidin-3-yl (2-(2-(4-(3-methoxypropoxy)phenyl)thiazol-4-yl)propan-2-yl)carbamate]
IC50 [1]: 170 µM | IC50 [2]: 197 µM | IC50 [3]: 42.6 µM

CCCCN1C[C@H](O)[C@@H](O)[C@H](O)[C@H]1CO [miglustat]
treatment of the neurological manifestations of GD-3 ([4]; clinical trials): ineffective | crossing of the blood-brain barrier ([4]; human, in vivo): does cross the blood-brain barrier

COCCOc1ccc(-c2ccc(C(C)(C)NC(=O)OC3CN4CCC3CC4)cc2)cc1 (centres unmarked) [Compound 13, Quinuclidin-3-yl (2-(4′-(2-methoxyethoxy)-[1,1′-biphenyl]-4-yl)propan-2-yl)carbamate]
IC50 [1]: 3.5 µM | IC50 [2]: 38.6 µM | IC50 [3]: 0.7 µM

O=C(NC1(c2ccc(-c3ccc(F)cc3F)cc2)CC1)O[C@@H]1CN2CCC1CC2 [Compound 8, (S)-1-azabicyclo[2.2.2]oct-3-yl [1-(2′,4′-difluorobiphenyl-4-yl)cyclopropyl]carbamate]
IC50 [1]: 1 µM | IC50 [2]: 7.5 µM | IC50 [3]: 0.4 µM

CC(C)(NC(=O)O[C@@H]1CN2CCC1CC2)c1ccc(-c2ccccc2)cc1 [Compound 5, (S)-quinuclidin-3-yl 2-(biphenyl-4-yl)propan-2-ylcarbamate]
IC50 [1]: 1.2 µM | IC50 [2]: 19.3 µM | IC50 [3]: 0.3 µM

COCCOc1ccc(-c2nc(C(C)(C)NC(=O)OC3CN4CCC3CC4)cs2)cc1 (centres unmarked) [Compound 20, Quinuclidin-3-yl (2-(2-(4-(2-methoxyethoxy)phenyl)thiazol-4-yl)propan-2-yl)carbamate]
IC50 [1]: 360 µM | IC50 [2]: 106 µM | IC50 [3]: 19.8 µM

CC(C)(NC(=O)OC1CN2CCC1CC2)c1ccc(-c2ccc(CCO)cc2)cc1 (centres unmarked) [Compound 18, Quinuclidin-3-yl (2-(4′-(2-hydroxyethyl)-[1,1′-biphenyl]-4-yl)propan-2-yl)carbamate]
IC50 [1]: 148 µM | IC50 [2]: 656 µM | IC50 [3]: 22.3 µM
